Where two headings read alike, the source gives them in different places.
Experiments:
GII.4 HuNoV = GII.4 HuNoV infection of HIE monolayers, viral genome equivalents by RT-qPCR; type: cell-based, human norovirus; details: Norovirus
GII.3 HuNoV = assay: microbe, parasite or virus in culture; type: cell-based, human norovirus; details: Norovirus, read-out: EC50, HuNoV GEs
J2 HIE monolayers [1] = type: cell-based; details: human, 20 h, 50 μM
Experimental: Supplementary file : FIG S2 Cell viability and cytotoxicity of dasabuvir in J2 HIE monolayers. J2 HIE monolayers were treated with DSB at the indicated concentrations for 20 h. Cell viability or cytotoxicity was measured using CellTiter-Glo luminescent cell viability assay or the Cytotoxicity LDH assay kit-WST, respectively. Results were normalized to DMSO control. Values represent the mean ± SD (n = 7). Download FIG S2, TIF file, 0.8 MB.

[2] = tested on: human rotavirus A (RVA) Wa strain; type: cell-based; details: 20 μM, J2 HIE monolayers, 20 hpi
SARS-CoV-2 = type: cell-based; details: VeroE6/TMPRSS2 cells, 20 h
VeroE6/TMPRSS2 cells = details: 20 h
HCV of genotype 1 = tested on: HCV of genotype 1; parameters: method as in PMID 25534735; details: HCV genotype 1 subgenomic replicon; cited from earlier work
[3] = healthy volunteers, 1,000 mg twice a day [BID] for 10 days; read-out: maximum plasma concentration (Cmax); cited from earlier work
[4] = tested on: RdRp of Middle East respiratory syndrome coronavirus (MERS-CoV); details: cited from earlier work
J2 HIE monolayers [5] = assay: Cytotoxicity by LDH assay in J2 HIE monolayers
SARS-CoV-2 (WK-521) = assay: SARS-CoV-2 infection of J2 HIE monolayers, viral GEs by RT-qPCR; details: 20 μM, 20 hpi

`COc1c(-c2ccc3cc(NS(C)(=O)=O)ccc3c2)cc(-n2ccc(=O)[nH]c2=O)cc1C(C)(C)C` [Dasabuvir] showed an activity at 10 µM (GII.4 HuNoV; 24 h, compound 10 μM, n = 1, J2 HIE monolayers, GII.4 HuNoV, 24 hpi, normalized to DMSO control, read-out: (%) HuNoV GEs) of 1.14%, an EC50 (GII.4 HuNoV; J2 + GII.4, 20 hpi, read-out: EC50, HuNoV GEs) of 11.7 µM and an EC50 (GII.4 HuNoV; J3 + GII.4, 20 hpi, read-out: EC50, HuNoV GEs) of 12.4 µM. The EC50 (GII.4 HuNoV; range over GII.4 and GII.3 HuNoV in J2 and J3 HIEs (Fig. 2), read-out: EC50 values, HuNoV infection) was 7.55 to 12.4 µM, the EC50 (GII.3 HuNoV; J2 + GII.3, 20 hpi) was 7.55 µM and the EC50 (GII.3 HuNoV; J3 + GII.3, 20 hpi) was 9.85 µM. The “reduction of cellular ATP (cell viability)” value (J2 HIE monolayers [1]) was 17%, the “fold decrease of RVA infection (viral GEs)” value [2] was 2.75 fold and the “effect on SARS-CoV-2 infection” value (SARS-CoV-2) was “inhibition”. For the same compound, the cytotoxicity (VeroE6/TMPRSS2 cells) was “no cytotoxicity”, the EC50 (HCV of genotype 1) was under 0.01 µM and the Cmax [3] was about 5.61 µM. For the same compound, the “inhibition of RdRp activity” value [4] was “partially inhibits”, the “increase of LDH release (cytotoxicity)” value (J2 HIE monolayers [5]; 50 μM, 20 h, uninfected J2 monolayers, compared to DMSO control) was 10% and the “(%) Cytotoxicity” value (J2 HIE monolayers [5]; compound 10 μM, n = 1, LDH assay, J2 HIE monolayers infected with GII.4 HuNoV, 24 hpi, normalized to DMSO control) was -4.83%. For the same compound, the “fold decrease of SARS-CoV-2 infection (viral GEs)” value (SARS-CoV-2 (WK-521)) was 26.9 fold.

Source: article PMC8565515, “Dasabuvir Inhibits Human Norovirus Infection in Human Intestinal Enteroids” (mSphere, 2021)
